The results in this text go back to patent US20070299040A1, “Composition for Preventing a Cold” (BIOTECH INSTITUTE FOR INTERNATIONAL INNOVATION, INC., priority 2004, published 2007).

“And” between values parts separate entries of the source, which are not always exact repeats. Equal values may be shown once.

What all share (format): in vivo, human
Assay [1] deals with cold. The assay is described as follows: Analysis of cold cases, composition of Example 8 vs vitamin C and placebo (Experimental Example 3). The text has this: The present experiment example analyzed cold cases in the experiment group who took the composition of Example 8, and the control groups I and II who took vitamin C and placebo (wheat flour) respectively, throughout 40 months from 1999 to 2003. The intake is the same as 1 g after meal. Here, ‘cold’ is defined to show high fever or slight fever, sore throat, dry cough, headache, myalgia, and chill.
As a result of the above experiment, the average of cold case a year per person in the experiment group who took the present composition, the control group I who took vitamin C, and the control group II who took placebo was 0, 1.5, and 5.6, respectively, all of which are statistically significant difference under 0.05% of significance probability. In sum, the composition of the present invention accomplished 100% of cold prevention effect.

The subject of assay [2] is IL-10. The assay is described as follows: Cytokine in serum by ELISA (Experimental Example 4). The conditions noted are these: samples from persons after 40 months of intake. The method, then:
(§1) After such cultivating, the plates were washed, biotynilated secondary antibody was filled in each plate by […], and streptavidin ALP was added thereto, which was cultivated at 37° C. for 30 minutes. After washing the plates again, alkaline phosphatase PNPP was added thereto, and the plates were cultivated for 30 minutes and measured with ELISA reader at 405 nm.
Background: An ELISA detects its analyte on a solid surface through an enzyme-linked reagent.

Assay [3] relates to IL-2. The description is as above. The conditions noted are these: samples from persons after 40 months of intake; 10 samples. Here is the method: as §1
In assay [4] the test system is IL-12. Described as above. The following applies: samples from persons after 40 months of intake; 10 samples. The method, then: as §1
The subject of assay [5] is IL-4. The assay is described as above. The following applies: samples from persons after 40 months of intake; 10 samples. The method, then: as §1
In assay [6] the test system is INF-γ. The description is as above. The following applies: samples from persons after 40 months of intake; 10 samples. Here is the method:
as §1

As for `O=C1O[C@H]([C@@H](O)CO)C(O)=C1O` [Vitamin C, ascorbic acid], the “average of cold case a year per person” value in assay [1] (40 months, 1 g after meal) is reported as 1.5. Moreover, in assay [1] (group administrating vitamin C only), the “cold prevention effect (in words)” value was “some cold prevention effect”. The “Frequency of cold in the control group taking vitamin C” value in assay [1] (per person (one line per subject), 1 g after meal, 40 months 1999-2003) was 4 (7×) and 5 (5×) and 7 and 6 (2×). The “Cytokine in serum IL-10” value in assay [2] amounted to 10 ± 8 pg/mL. In addition, the “Cytokine in serum IL-2” value in assay [3] is 51 ± 19 pg/mL. For the same compound, the “Cytokine in serum IL-12” value in assay [4] was 20 ± 7 pg/mL. Further, the “Cytokine in serum IL-4” value in assay [5] turned out to be 0.14 ± 0.03 pg/mL. Moreover, the “Cytokine in serum INF-γ” value in assay [6] came out at 68 ± 12 pg/mL.
